Measurements published in patent US8153104B2, “Pharmaceutical formulations for dry powder inhalers comprising a low-dosage strength active ingredient” (Chiesi Farmaceutici S.p.A., priority 2005, dated 2012).
Structures can show the parent of a compound that is named as a salt.

Experiment: Particle size of microparticles by laser diffraction analysis
Assay type: physicochemical
Settings: starting material of Example 2
Method: The particle size of the obtained microparticles was determined by laser diffraction analysis. The parameters taken into consideration were: i) the VD in micron of 10%, 50%, and 90% of the particles expressed as d(v, 0.1), d(v, 0.5) and d(v, 0.9), respectively, which correspond to the mass diameter assuming a size independent density for the particles. ii) the polydispersity of the powder, i.e. the width of the particle size distribution which is expressed by the span (span=[d(v, 0.9)−d(v, 0.1)]/d (v, 0.5)—according to Chew N Y et al J Pharm Pharmaceut Sci 2002, 5, 162-168).
The agglomerates were isolated by sieving and their particle size distribution determined by laser diffraction analysis.
The microparticles were characterised in terms of particle size (laser diffraction analysis) and uniformity of distribution of the active ingredient.

- MMD of micronised active ingredient: 1.8 micron
SMILES: COc1ccc(C[C@@H](C)NC[C@H](O)c2ccc(O)c3[nH]c(=O)ccc23)cc1 [CHF 4226 hydrochloride, 8-hydroxy-5-[(1R)-1-hydroxy-2-[[(1R)-2-(4-methoxyphenyl)-1-methylethyl]amino]ethyl-2(1H)-quinolinone hydrochloride]
